Values joined by “and” are separate entries in the source; they are usually repeats but may differ in a detail not shown here. Identical values can stand only once.
Key:
[1] = system: serine hydrolases (SHs) in mouse T-cell proteomes; assay: Gel-based competitive ABPP, mouse T-cell proteomes in vitro, SH reactivity profile; assay type: biochemical; conditions: 100 nM, 30 minutes at 37° C.
APEH [2] = target: T1, APEH (Mus musculus, UniProt Q8R146); assay: ABPP-SILAM of brain tissue from treated mice; assay type: in vivo; conditions: treated mice (vehicle 14)
T1 sequence (Q8R146 1-732): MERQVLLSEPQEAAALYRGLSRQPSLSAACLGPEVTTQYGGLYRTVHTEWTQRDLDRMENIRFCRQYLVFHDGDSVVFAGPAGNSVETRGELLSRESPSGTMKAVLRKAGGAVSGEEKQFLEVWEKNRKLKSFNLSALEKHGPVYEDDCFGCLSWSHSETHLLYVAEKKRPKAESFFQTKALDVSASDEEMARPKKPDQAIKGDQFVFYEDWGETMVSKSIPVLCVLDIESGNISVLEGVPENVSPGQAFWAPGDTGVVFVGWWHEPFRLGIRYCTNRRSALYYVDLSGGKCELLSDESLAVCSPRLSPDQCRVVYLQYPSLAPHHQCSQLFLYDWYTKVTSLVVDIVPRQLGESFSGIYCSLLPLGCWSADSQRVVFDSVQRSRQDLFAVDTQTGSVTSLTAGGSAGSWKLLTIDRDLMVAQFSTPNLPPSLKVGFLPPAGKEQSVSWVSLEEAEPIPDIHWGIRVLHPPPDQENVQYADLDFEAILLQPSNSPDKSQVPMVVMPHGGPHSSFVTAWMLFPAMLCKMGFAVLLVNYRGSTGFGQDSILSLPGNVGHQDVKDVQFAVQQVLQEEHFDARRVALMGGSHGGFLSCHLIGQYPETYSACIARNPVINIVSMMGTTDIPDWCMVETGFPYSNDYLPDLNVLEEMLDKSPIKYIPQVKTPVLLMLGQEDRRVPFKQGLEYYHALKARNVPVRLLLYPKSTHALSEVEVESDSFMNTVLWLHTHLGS
Experimental: (§1) The potency and selectivity of 1,2,3-triazole ureas in vivo also was investigated. Mice were treated with the APEH inhibitor AA74-1 at various doses (0.2-1.6 mg/kg; PEG300 or 18:1:1 saline/ethanol/emulphor intraperitoneally) and sacrificed after 4 h. Brains and hearts were removed, homogenized, and analyzed by gel-based competitive ABPP. […] Finally, the possibility of extending ABPP-SILAC for the characterization of inhibitor selectivity in vivo was explored by taking advantage of recently described protocols for stable isotope labeling in mammals (SILAM). In this approach, brain tissues from vehicle- and AA74-1-treated mice were separately mixed with equivalent amounts of brain tissue from ‘heavy’ amino acid-fed mice, and the samples were then labeled with FP-biotin, enriched by avidin chromatography, analyzed by LC-MS, and SH activities quantified by measuring the ratio-of-ratios for observed peptide signals. […] The ratio-of-ratio signals for APEH indicated greater than 90% inhibition of this enzyme in AA74-1-treated animals (FIG. 5b, top), consistent with average spectral count values (14 and 1 spectral counts for APEH in vehicle-treated versus AA74-1-treated mice, respectively; FIG. 5b, bottom). […] ACHE, an enzyme that is targeted by other reported NHU inhibitors, was not inhibited by AA74-1 in either mouse brain (FIG. 5b) or transfected cell (FIG. 16) proteomes.
(§2) C57BL6 mice were labeled with ^15N. Briefly, each mouse was fed an ^15N-labeled protein diet starting immediately after weaning which continued for the next 10 weeks. The ^15N-labeled diet was generated by combining spirulina biomass ^15N-labeled (Cambridge Isotopes) with protein-free diet powder (Harlan TD 93328) in a 1:2 (wt/wt) ratio and an appropriate amount of H2O to generate a dough. This dough is then cut into 2-cm thick pellets and dried at 60° C. for 2-4 h and then at 35° C. overnight using an Excalibur food dehydrator. These ^15N-labeled food pellets are then used to replace normal chow. […] Brains were determined to be 95% labeled by mass spectrometry with ^15N and used for quantitative analysis. […]

ACHE = target: T2, ACHE (Mus musculus, UniProt P21836); assay: ABPP-SILAM of brain tissue from treated mice; assay type: in vivo; conditions: mouse brain proteome of treated mice
T2 construct: from tissue; host or cells: mouse brain
T2 sequence (P21836 32-614): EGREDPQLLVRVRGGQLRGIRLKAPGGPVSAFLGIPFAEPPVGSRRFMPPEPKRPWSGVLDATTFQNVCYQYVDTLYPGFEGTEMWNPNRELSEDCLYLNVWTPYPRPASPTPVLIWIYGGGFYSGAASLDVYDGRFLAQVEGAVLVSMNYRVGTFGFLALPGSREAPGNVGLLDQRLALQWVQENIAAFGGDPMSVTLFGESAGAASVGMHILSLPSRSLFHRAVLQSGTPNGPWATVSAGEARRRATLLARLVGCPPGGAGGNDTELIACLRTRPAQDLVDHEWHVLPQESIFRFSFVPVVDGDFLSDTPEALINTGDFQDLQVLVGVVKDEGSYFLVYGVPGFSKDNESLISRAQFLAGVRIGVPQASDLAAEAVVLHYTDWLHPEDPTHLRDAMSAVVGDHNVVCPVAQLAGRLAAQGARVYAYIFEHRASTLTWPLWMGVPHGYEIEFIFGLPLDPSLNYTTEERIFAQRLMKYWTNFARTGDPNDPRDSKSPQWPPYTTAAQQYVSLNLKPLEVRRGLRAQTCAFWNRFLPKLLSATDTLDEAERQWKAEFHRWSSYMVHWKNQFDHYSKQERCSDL
Experimental: as §1, §2

PREPL = target: T3, PREPL (Mus musculus, UniProt Q8C167); assay: ABPP-SILAM of brain tissue from treated mice; assay type: in vivo; conditions: may not represent actual changes
T3 construct: from tissue; host or cells: mouse brain
T3 sequence (Q8C167 whole entry): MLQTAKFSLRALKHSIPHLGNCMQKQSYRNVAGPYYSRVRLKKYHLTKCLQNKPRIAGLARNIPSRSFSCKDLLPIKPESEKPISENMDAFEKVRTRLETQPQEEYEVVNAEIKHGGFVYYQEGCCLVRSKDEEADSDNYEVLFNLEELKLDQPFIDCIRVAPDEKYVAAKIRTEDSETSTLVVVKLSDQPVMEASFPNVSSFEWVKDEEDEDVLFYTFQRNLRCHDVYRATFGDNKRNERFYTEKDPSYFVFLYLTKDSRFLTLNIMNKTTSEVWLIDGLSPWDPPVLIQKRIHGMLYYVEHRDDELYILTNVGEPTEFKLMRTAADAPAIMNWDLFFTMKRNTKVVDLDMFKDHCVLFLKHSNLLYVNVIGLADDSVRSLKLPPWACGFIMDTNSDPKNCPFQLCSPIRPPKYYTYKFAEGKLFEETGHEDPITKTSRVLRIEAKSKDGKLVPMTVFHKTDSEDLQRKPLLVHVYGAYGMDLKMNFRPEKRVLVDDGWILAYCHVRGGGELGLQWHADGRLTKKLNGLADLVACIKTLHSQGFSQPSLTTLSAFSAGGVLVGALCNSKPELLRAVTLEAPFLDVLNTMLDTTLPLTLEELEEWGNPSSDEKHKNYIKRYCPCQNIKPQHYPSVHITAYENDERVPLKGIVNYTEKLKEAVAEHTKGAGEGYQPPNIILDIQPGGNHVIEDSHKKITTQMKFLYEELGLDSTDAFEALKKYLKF
Experimental: as §1, §2

[3] = system: serine hydrolases (SHs) in mouse brain and heart; assay: In vivo selectivity across SHs in tissues of treated mice (gel-based ABPP, ABPP-SILAM)
Experimental: as §1

APEH [4] = target: T1, APEH; assay: ABPP-SILAC in living mouse T-cells; conditions: 3 nM inhibitor, 4 h
peritoneal macrophages = assay: LPS-stimulated TNF-alpha release (ELISA), macrophages from treated C57 BL/6 mice; assay type: in vivo, mouse; conditions: 5 mg/kg, 4 hours, i.p.; LPS 5 μg/mL, 90 min
Experimental: The effects of DAGLB-inhibition on the proinflammatory response in Pla2g4a^+/+ versus Pla2g4a^−/− mice also was evaluated. Thioglycolate-elicited macrophages from C57 BL/6 mice treated with KT109 or KT195 (5 mg/kg, 4 hours, i.p.) were harvested, plated, and stimulated with lipopolysaccharide (LPS).

DAGLB = target: T4, DAGLB (Mus musculus, UniProt Q91WC9); assay: ABPP-SILAC in Neuro2A cells; conditions: about 4 hours; 25 nM KT172, 50 nM KT109
T4 sequence (Q91WC9 1-669): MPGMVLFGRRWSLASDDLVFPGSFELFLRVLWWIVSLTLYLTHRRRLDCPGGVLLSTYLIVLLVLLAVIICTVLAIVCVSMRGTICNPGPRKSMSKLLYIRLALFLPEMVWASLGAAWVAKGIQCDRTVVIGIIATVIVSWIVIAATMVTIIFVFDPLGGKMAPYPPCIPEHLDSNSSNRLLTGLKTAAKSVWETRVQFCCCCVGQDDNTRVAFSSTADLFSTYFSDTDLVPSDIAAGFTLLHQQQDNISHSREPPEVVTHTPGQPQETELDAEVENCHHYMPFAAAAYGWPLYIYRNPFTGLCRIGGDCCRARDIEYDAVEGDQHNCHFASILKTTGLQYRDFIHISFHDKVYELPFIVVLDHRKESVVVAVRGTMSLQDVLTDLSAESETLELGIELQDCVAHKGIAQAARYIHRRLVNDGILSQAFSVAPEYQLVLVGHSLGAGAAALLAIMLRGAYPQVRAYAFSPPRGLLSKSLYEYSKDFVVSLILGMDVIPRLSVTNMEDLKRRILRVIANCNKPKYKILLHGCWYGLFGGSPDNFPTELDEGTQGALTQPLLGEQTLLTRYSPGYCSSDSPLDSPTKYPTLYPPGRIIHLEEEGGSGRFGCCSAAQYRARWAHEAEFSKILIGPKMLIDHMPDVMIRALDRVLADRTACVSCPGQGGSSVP

Row | Compound | cross-reactivity with other SHs [1] | average spectral count for APEH (APEH [2]) [spectral counts] | ACHE inhibition in mouse brain (ACHE) | partial inhibition of PREPL suggested by ratio-of-ratio signals (PREPL) | SHs inhibited among 44 SHs identified in brain (ABPP-SILAM) ([3]; 0.8 mg/kg, i.p.) | additional SH targets by gel-based ABPP ([3]; brain and heart, 0.2-1.6 mg/kg i.p., 4 h) | APEH activity blocked (APEH [4]) | secreted TNF-alpha levels (peritoneal macrophages) | DAGLB activity blocked (DAGLB)
1 | CC(C)CC(O)(CC(C)C)c1cnn(C(=O)N2CCCC2)n1 [AA74-1] | not interacting with other SHs | 1 | not inhibited | 50-60% | only APEH was inhibited | No additional SH targets were observed | > 95% and > 97% | – | –
2 | O=C(N1CCCCC1Cc1ccccc1)n1cc(-c2ccc(-c3ccccc3)cc2)nn1 (stereo not drawn) [KT109] | – | – | – | – | – | – | – | modest but significant reduction in secreted TNF-alpha levels | approximately 90%

Source: patent publication US9108930B2, “N1- and N2-carbamoyl-1,2,3-triazole serine hydrolase inhibitors and methods” (The Scripps Research Institute, priority 2011, dated 2015)
